Laboratory results from patent US20080261891A1, “COMPOSITIONS AND METHODS FOR USING SYRINGOPEPTIN 25A AND RHAMNOLIPIDS” (Utah State University, priority 2007, published 2008).

Experiments:
[1] = tested on: M. tuberculosis H37Rv; assay: MIC by microplate Alamar Blue assay (MABA); type: cell-based, Mycobacterium tuberculosis; conditions: 7H12 media
[2] = tested on: mouse enteroendocrine cells (STC-1); assay: Toxicity to mammalian cells, percent cell death (Nucleocounter); conditions: positive control
Experimental: (§1) Toxicity of the two compounds to mammalian cells was assayed in cell culture using mouse enteroendocrine cells (STC-1), human embryonic kidney cells (HEK 293; ATCC CRL-1573), and human lung fibroblasts (LL47; ATCC CCL-135). […] The human embryonic kidney cells and human lung fibroblasts were grown as per the American Type Culture Collection's recommendation, while the mouse enteroendocrine cells were grown as described by Vincent et al. (2001, Proc. Natl. Acad. Sci., 99:2392-2397). Media and sera were purchased from HyClone Laboratories (Logan, Utah). All cells were grown in 10% fetal bovine serum (FBS).
(§2) The number in the parenthesis represents the concentration of each compound in μg/mL. The percent cell death was benchmarked to 100% lysis with the positive control. The number of total cells and dead cells were counted after 6, 24, and 48 h using a Nucleocounter Automated cell counting system (New Brunswick; Edison, N.J.). Briefly, cells (STC, 200,000 cells/well; HEK 293, 200,000 cells/well; and LL47, 100,000 cells/well) were incubated in the appropriate medium for 24 h prior to addition of fresh media containing the antimicrobial compounds. After addition of the antimicrobial compound, the cell cultures were incubated at 37° C. with 5% CO2 for 6, 24, and 48 h. Cells were harvested by trypsinization using 0.25% trypsin-EDTA for 2 min. The trypsin was neutralized by addition of 200 μL of serum containing fresh medium. The cells were then harvested and transferred to 1.5 mL tubes, centrifuged (3-5 min at <100×g), and resuspended in 200 μL of fresh medium. For the total cell count, 100 μL of the suspension was added to lysis buffer (Reagent A100 in the starting kit (Cat No. M1293-0020, New Brunswick Scientific) for 30 s, which was stabilized using 100 μL of Reagent B. A positive control of completely lysed cells was used along with a negative control using sterile PBS (pH 7.4). For dead cell counts, 100 μL of cell lysate was counted without the use of lysis buffer or stabilizing buffer. All cell counts were obtained using the Nucleocounter automated cell counting system. Data were reported as the percent of cell death. The toxicity testing was done in replicate using three wells per test.

[3] = tested on: human embryonic kidney cells (HEK 293); assay: as above; conditions: positive control
Experimental: as §1, §2

[4] = tested on: human lung fibroblasts (LL47); assay: as above; conditions: positive control
Experimental: as §1, §2

| Compound | expected MIC range (quality control) [1] [µg/mL] | lysis [2] [%] | lysis [3] [%] | lysis [4] [%] |
| --- | --- | --- | --- | --- |
| NNC(=O)c1ccncc1 [Isoniazid] | 0.025 to 0.1 |  |  |  |
| triton [reference compound] |  | 100 | 100 | 100 |
